Assay results taken from patent US20190076384A1, “METHODS FOR TREATING UREA CYCLE DISORDERS” (priority 2017, published 2019).
Where two headings read alike, the source gives them in different places.

Assays:
Cytochrome P450 2C9 = Cytochrome P450 2C9 (Homo sapiens, UniProt P11712); test: clinical; settings: multiple doses of RAVICTI
Protocol: Methodology: This was an open-label, 2-period, monosequence crossover, drug-drug interaction (DDI) study of RAVICTI and celecoxib in healthy male and female subjects.
Test Product, Dose, Duration, and Mode of Administration: In Treatment A (Period 1), subjects received 200 mg celecoxib (1×200 mg capsule) administered orally with approximately 240 mL of water following an overnight fast and approximately 5 minutes prior to the start of a standard breakfast on Day 1.
Pharmacokinetics: Blood samples (4 mL) for the analysis of plasma celecoxib were collected on Days 1 (Period 1) and 4 (Period 2) at the following time points: predose (Hour 0) and 1, 2, 3, 4, 6, 8, 12, 16, 24, 36, 48, 60, and 72 hours postdose. A blood sample (6 mL) for CYP2C9 genotyping was collected at screening to exclude any subjects with a slow metabolizer genotype (i.e., CYP2C9*2/*2, CYP2C9*2/*3, CYP2C9*1/*3, and CYP2C9*3/*3). PK parameters for celecoxib in plasma were computed following Day 1 (Period 1) and Day 4 (Period 2) blood draws and included AUC0-t, AUC0-inf, AUC%extr, Cmax, tmax, t1/2, kel, and CL/F.
Pharmacokinetics: The possible DDI was examined between co-administration of RAVICTI and celecoxib (Treatment B, test) and celecoxib administered alone (Treatment A, reference). An analysis of variance (ANOVA) was performed with treatment as a fixed effect and subject as a random effect. Data for AUC0-t, AUC0-inf, and Cmax, as appropriate, were ln-transformed prior to analysis. The 90% confidence intervals (CIs) of the test group means relative to the reference group means were obtained by taking the antilog of the corresponding 90% CIs for the differences between the means on the log scale, i.e., ratio of geometric least-squares (LS) means.

CYP2C9 = CYP2C9 (Homo sapiens, UniProt P11712); settings: Diclofenac 4′-hydroxylase, 5 mM
CYP3A4/5 = assay type: in vitro ADME, human; settings: 5 mM

Chain of CYP2C9 (P11712 whole entry): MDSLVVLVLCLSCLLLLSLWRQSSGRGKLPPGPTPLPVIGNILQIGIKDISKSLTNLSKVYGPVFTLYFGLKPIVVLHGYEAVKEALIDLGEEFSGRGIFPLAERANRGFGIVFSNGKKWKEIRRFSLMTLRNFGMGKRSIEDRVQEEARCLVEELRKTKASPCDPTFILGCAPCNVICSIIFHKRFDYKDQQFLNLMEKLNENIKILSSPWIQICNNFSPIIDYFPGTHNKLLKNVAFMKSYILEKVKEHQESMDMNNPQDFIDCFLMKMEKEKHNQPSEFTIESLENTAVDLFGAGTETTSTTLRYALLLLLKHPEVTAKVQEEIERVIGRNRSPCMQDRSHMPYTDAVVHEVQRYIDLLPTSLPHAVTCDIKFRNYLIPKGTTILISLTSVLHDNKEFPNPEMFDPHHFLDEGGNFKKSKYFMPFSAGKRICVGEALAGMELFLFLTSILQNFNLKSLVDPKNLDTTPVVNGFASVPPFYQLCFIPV
Chain of Cytochrome P450 2C9 (P11712 whole entry): as above

In the case of O=C(CCCc1ccccc1)OCC(COC(=O)CCCc1ccccc1)OC(=O)CCCc1ccccc1 [RAVICTI, benzenebutanoic acid, 1′,1″-(1,2,3-propanetriyl) ester], the “inhibition of CYP2C9 activity in vivo” value (Cytochrome P450 2C9) is reported as “did not appear to inhibit”, the “% Inhibition” value (CYP2C9; pre-incubation time 0 min) is reported as 35% and the “% Inhibition” value (CYP2C9; pre-incubation time 30 min) is reported as 19%. The “% Inhibition” value (CYP3A4/5; Midazolam 1′-hydroxylase, pre-incubation time 0 min) was 19%, the “% Inhibition” value (CYP3A4/5; Midazolam 1′-hydroxylase, pre-incubation time 30 min) was 24% and the “% Inhibition” value (CYP3A4/5; Testosterone 6β-hydroxylase, pre-incubation time 0 min) was 15%. For the same molecule, the “% Inhibition” value (CYP3A4/5; Testosterone 6β-hydroxylase, pre-incubation time 30 min) was 6%.
